Data: PMC12476894, “Identification of α‑Azacyclic Acetamide-Based Inhibitors of P. falciparum Na^+ Pump (PfATP4) with Fast-Killing Asexual Blood-Stage Antimalarial Activity by Phenotypic Screening” (ACS Infectious Diseases, 2025)
Read-outs that look alike come from different tables or passages of the source.

Experiments:
[1] = tested on: P. falciparum Dd2 (PfDd2) parasites; assay: 72 h SYBR Green growth inhibition, ABS P. falciparum Dd2 (Phillips Lab); format: cell-based, Plasmodium falciparum; conditions: Plasmodium falciparum
[2] = tested on: P. falciparum NF54^luc parasites; assay: 72 h SYBR Green growth inhibition, PfNF54^luc; format: cell-based; conditions: Plasmodium falciparum, 72 h SYBR Green assay, read-out: PfNF54^luc EC50
[3] = tested on: P. falciparum NF54^luc parasites; assay: Luciferase reporter (LR) / BRRoK assay, PfNF54^luc; format: cell-based, Plasmodium falciparum; conditions: Plasmodium falciparum, NF54, Hec50; luciferase reporter, 6 h
PfD10 attB = assay: 72 h SYBR Green growth inhibition, PfD10 attB; format: cell-based; conditions: Plasmodium falciparum; 72 h SYBR Green assay
[4] = Human HepG2 cytotoxicity assay (CellTiter Glo); format: cell-based; conditions: HepG2 cells
in vitro = in vitro ADME; conditions: human liver microsomes, 1 µM compound, 0.4 mg/mL protein
[5] = tested on: Dd2 PfATP4^P412L mutant clones; assay: 72 h SYBR Green growth inhibition, 2-selected Dd2 clones with PfATP4 P412L (Phillips Lab); format: cell-based, Plasmodium falciparum; conditions: for EC50: Plasmodium falciparum
Method: (§1) To confirm the MOA for the α-azacyclic acetamides against P. falciparum and to obtain potential information about whether or not they bind PfATP4 at an overlapping site with that of KAE609, we undertook resistance selections using PfDd2 parasites using the published cycling drug selection method. , α-Azacyclic acetamides 2 and 3 were chosen as representative examples of the pyrrole- and indole-based series, respectively. […] Additional cycles were performed at 20 × EC50, until resistant parasites were detected based on a fold change in EC50 compared to the parental clonal Dd2 line (Table S3). Resistant parasites were detected in the 2-selections in all 4 flasks after 4 pulses and for 3-selections in 3 flasks after 5 pulses. Clonal lines were generated from each flask, and one clone per flask was selected for WGS and EC50 determination (Tables S4 and S5). WGS analysis identified two single point mutations in PfATP4 that were not present in the original clonal Dd2 parasite line (Tables and S4). P412L was found in three of four flasks containing 2-selected resistance clones, and F917L was identified in all three flasks containing 3-selected clones and in the fourth flask containing 2-selected clones (Table S4). PfATP4 mutations identified by the WGS analysis in parasite lines were verified by PCR of the pfatp4 gene, followed by Sanger sequencing (Figures S5, S6 and Table S6). An additional protein coding gene (ribosomal protein S8e) was mutated in the 2-selections. However, this mutation was identified in only one of four sequenced clones and is therefore unlikely to be related to resistance to 2 (Figure S7). All three resistant clones derived from the 3-selections harbored an identical mutation in a gene (pfcpu) encoding a conserved protein of unknown function, which was absent in the parental line (Figure S8).
(§2) ABS P. falciparum 3D7, Dd2 or PfNF54^luc parasites (BEI resources) were cultured in RPMI 1640 medium (Millipore Sigma), supplemented with 25 mM HEPES, 0.5% Albumax-I (Thermo Scientific), 23 mM sodium bicarbonate, 92 μM hypoxanthine, and 10 μg/mL gentamicin sulfate at 37 °C, 5% CO2, using deidentified O^+ red blood cells (BioIVT) as previously described. − Growth inhibition assays were conducted in 96 well plate format using the SYBR Green or luciferase reporter assay depending on the strain with modifications as described , (see Supporting Information for a detailed description). Details for the luciferase reporter assay are described below under the BRRoK assay section.
(§3) EC50 and CC50 values were determined by nonlinear regression performed in GraphPad Prism Version 10. Unless otherwise specified, data were fitted to the log(inhibitor) vs response–variable slope with four parameters equation. […] For mutant cell lines and compound combinations where bottom plateau of zero growth was not reached, the bottom of the curve was defined at 0% based on background values obtained for parental Dd2 from the same study.
(§4) Resistant Dd2 parasites were selected using a high-pressure intermittent selection protocol using a previously described method. Selections were set up using 4 flasks per compound starting with approximately 3 × 10^9 parasites per flask (80 mL per flask, 4% hematocrit, 3% parasitemia at the beginning of each pulse, mostly ring-stage parasites via previous sorbitol synchronization. Pulse 1 and 2 (48 h) were conducted at 10xEC50, and subsequent pulses were conducted at 20xEC50. Parasites cleared within 48 h under these conditions. 3-Selections used a total of 4 pulses, while 2-selections required 5 pulses before resistant parasites emerged (Table S3). Culture media was replenished daily for a week after each pulse, then every 2 days with weekly replenishment of blood. Cultures were monitored by microscopy until recrudescence. Clonal parasites were obtained from each flask by limiting dilution and maintained in drug free RPMI-1640 media prior to being analyzed for EC50 shifts. […]

[6] = tested on: Dd2 PfATP4^F917L mutant clones; assay: 72 h SYBR Green growth inhibition, 2- or 3-selected Dd2 clones with PfATP4 F917L (Phillips Lab); format: cell-based, Plasmodium falciparum; conditions: for EC50: Plasmodium falciparum
Method: as §1, §2, §3, §4

Dd2^L350H (PfATP4^L350H) = assay: Drug susceptibility assay for cross-resistance profiling (Fidock Lab), L350H; format: cell-based, Plasmodium falciparum; conditions: Table 3 data set; for EC50: Plasmodium falciparum, DD2, 15-selected line
Dd2^P412L (PfATP4^P412L) = assay: Drug susceptibility assay for cross-resistance profiling (Fidock Lab), P412L; format: cell-based, Plasmodium falciparum; conditions: Table 3 data set; for EC50: Plasmodium falciparum, DD2, 15-selected line
[7] = tested on: Pf3D7 trophozoites, pHcyt (PfATP4 and other plasma membrane transporters); assay: P. falciparum pH fingerprint assay; conditions: 5 μM, compared with KAE609 50 nM
[8] = DD2, 72 h, read-out: PfDd2 EC50
[9] = DD2, read-out: EC50, 2-resistant Flask 2 Clone F9
[10] = DD2, read-out: EC50, 2-resistant Flask 3 Clone F5
[11] = DD2, read-out: EC50, 2-resistant Flask 4 Clone E10
[12] = DD2, read-out: EC50, 2-selected flask #3 clone F5
[13] = DD2, read-out: EC50, 2-resistant Flask 1 Clone B6
[14] = DD2, read-out: EC50, 3-resistant Flask 2 Clone D10
[15] = DD2, read-out: EC50, 3-resistant Flask 3 Clone D8
[16] = DD2, read-out: EC50, 3-resistant Flask 4 Clone B3
[17] = DD2, read-out: EC50, 3-selected flask #3 clone D8

Row | SMILES | EC50 [1, 8] [µM] | EC50 [2] [µM] | EC50 [3] [µM] | EC50 (PfD10 attB) [µM] | CC50 at 96 h [4] [µM] | microsomal CLint (in vitro) [µL/min/mg] | EC50 [5, 9] [µM] | EC50 [5, 10] [µM] | EC50 [5, 11] [µM] | EC50 [5, 12] [µM] | Fold EC50 change compared to WT Dd2, 2-selected flask #3 clone F5 [5] [fold] | EC50 [6, 13] [µM] | EC50 [6, 14] [µM] | EC50 [6, 15] [µM] | EC50 [6, 16] [µM] | EC50 [6, 17] [µM] | Fold EC50 change compared to WT Dd2, 3-selected flask #3 clone D8 [6] [fold] | EC50 (Dd2^L350H (PfATP4^L350H)) [µM] | EC50 fold-change vs Dd2-B2, Dd2^L350H (Dd2^L350H (PfATP4^L350H)) [fold] | EC50 (Dd2^P412L (PfATP4^P412L)) [µM] | further results
1 | Cc1ccnc(NC(=O)Cn2cccc2-c2nc(-c3ccccc3)cs2)c1 [compound 2, N-(4-methylpyridin-2-yl)-2-(2-(4-phenylthiazol-2-yl)-1H-pyrrol-1-yl)acetamide] | 0.83 ± 0.048 | 0.72 ± 0.019 | 1.1 ± 0.09 | 1.2 | > 50 | > 866 | > 10 | > 10 | > 10 | 29 ± 6.1 | 35 | 9.6 ± 2 | > 10 | > 10 | > 10 | 14 ± 0.78 | 17 | 1.6 ± 0.16 | 4.2 | 34 ± 1.3 | EC50 ([1]; DD2, read-out: EC50, Dd2 Parent (clone B8)): 0.78 µM; EC50 fold-change vs Dd2-B2, Dd2^P412L (Dd2^P412L (PfATP4^P412L)): 89 fold; pH fingerprint, +Glucose + CMA condition (in words) [7]: maximal/near-maximal inhibition of PfATP4
2 | Cc1nn(CCNC(=O)Cn2c(C)c(C#N)c3ccccc32)c(C)c1Cl [compound 3, N-(2-(4-chloro-3,5-dimethyl-1H-pyrazol-1-yl)ethyl)-2-(3-cyano-2-methyl-1H-indol-1-yl)acetamide] | 1.1 ± 0.072 | 0.94 ± 0.0027 | 1.6 ± 0.071 | 1.3 | > 50 | > 866 | > 10 | > 10 | > 10 | 11 ± 1.8 | 10 | > 10 | > 10 | > 10 | > 10 | 28 ± 1.6 | 25 | 3.4 ± 0.32 | 6.3 | 4.1 ± 0.45 | EC50 ([1]; DD2, read-out: EC50, Dd2 Parent (clone G9)): 0.99 µM; EC50 fold-change vs Dd2-B2, Dd2^P412L (Dd2^P412L (PfATP4^P412L)): 7.6 fold; pH fingerprint, +Glucose + CMA condition (in words) [7]: submaximal inhibition
